We go through one compound from patent US20210017499A1, “SILOXANE POLYMER-BASED CANCER STEM CELL PREPARATION METHOD” (KOREA ADVANCED INSTITUTE OF SCIENCE AND TECHNOLOGY, priority 2019, published 2021).

Holding throughout (test): Cell viability for doxorubicin (WST-1)
Holding throughout (format): cell-based, human
Background: Tetrazolium dyes change colour on reduction, which living cells bring about.

For one assay, the system named is SKOV3-ssiCSC. Conditions: DOX at various concentrations, 24 hours. On the procedure: (§1) ssiCSC spheroids prepared from different kinds of cancer cells (SKOV3, MCF-7, Hep3B and SW480) were isolated using trypsin (TrypLE Express, Gibco), and the isolated cells were washed with D-PBS twice. The ssiCSC was plated on a 96-well plate (1×10^4 cells/well) and was cultured in a cell growth medium at 37° C. for 24 hours. Then, the medium was removed, and a new medium comprising various concentrations of doxorubicin was added to each well and cultured for 24 hours. Next, each well was washed with D-PBS and was replaced with a new cell growth medium of 100 μl, and then WST-1 cell proliferation reagent (Roche) of 10 μl was added and cultured for 4 hours. Then, the absorbance at 450 nm (standard wavelength, 600 nm) was measured using a microplate reader (Molecular Devices).
(§2) In addition, the drug resistance of ssiCSC for doxorubicin (DOX) known as an anti-cancer agent was confirmed. Specifically, ssiCSC spheroids prepared by culturing on the pV4D4 surface for 8 days were isolated to single cells, and the cell was cultured on the conventional TCP surface to a 2D single layer, and then DOX at various concentrations was treated for 24 hours.

The test system of the next assay is SW480-ssiCSC. The method, then:
as §1, §2

The test system of assay [1] is ssiCSC (SKOV3, MCF-7, Hep3B and SW480). The settings on record: Dox of 50 μM, 24 hours, vs 2D control group. The method, then:
as §1, §2

Regarding `COc1cccc2c1C(=O)c1c(O)c3c(c(O)c1C2=O)C[C@@](O)(C(=O)CO)C[C@@H]3O[C@H]1C[C@H](N)[C@H](O)[C@H](C)O1` [Dox, doxorubicin], the “drug resistance (cell viability)” value was “complete resistance” in the assay with SKOV3-ssiCSC; “complete resistance” in the assay on SW480-ssiCSC (DOX at various concentrations, 24 hours); “higher resistance” in assay [1]. Moreover, in the assay with SW480-ssiCSC (subcultured on the TCP surface twice), the “drug resistance after subculture” value is reported as “maintained drug resistance”. In the assay on SW480-ssiCSC (vs control group cancer cells without DOX), the cell viability entry is on record as “higher cell viability than the cancer cells of the control group in which DOX was not treated”.
